Assay results taken from ChEMBL document CHEMBL1201862, “PubChem BioAssay data set” (2004).
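96-well plates; 48 h exposure; 5 concentrations. Endpoints by linear interpolation between flanking doses. Not reached: highest tested concentration assigned. At the GI50, growth is halved.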 Calls of active or inactive are those of the source. No stated cut-off is given here; in the data, active = GI50 up to about 1.1 µM and inactive = higher.

Experiments:
Assay in all cases: DTP human tumour cell line panel, 48 h
HCC 2998 = test system: HCC 2998
SK-MEL-5 = test system: SK-MEL-5
EKVX = test system: EKVX
NCI/ADR-RES = test system: NCI/ADR-RES
DU-145 = test system: DU-145
786-0 = test system: 786-0
LOX IMVI = test system: LOX IMVI
NCI-H23 = test system: NCI-H23
SF-295 = test system: SF-295
U-251 = test system: U-251
NCI-H226 = test system: NCI-H226
SK-MEL-2 = test system: SK-MEL-2
SN12C = test system: SN12C
NCI-H522 = test system: NCI-H522
HOP-92 = test system: HOP-92
OVCAR-3 = test system: OVCAR-3
SF-268 = test system: SF-268
MDA-MB-231 = test system: MDA-MB-231
OVCAR-4 = test system: OVCAR-4
KM12 = test system: KM12
Hs-578T = test system: Hs-578T
HCT-116 = test system: HCT-116
MDA-MB-435 = test system: MDA-MB-435
SNB-75 = test system: SNB-75
COLO 205 = test system: COLO 205
MCF7 = test system: MCF7
A498 = test system: A498
K562 = test system: K562
SW-620 = test system: SW-620
SK-OV-3 = test system: SK-OV-3
RPMI-8226 = test system: RPMI-8226
SK-MEL-28 = test system: SK-MEL-28
SF-539 = test system: SF-539
OVCAR-5 = test system: OVCAR-5
HOP-62 = test system: HOP-62
T47D = test system: T47D
UACC-62 = test system: UACC-62
TK-10 = test system: TK-10
A549 = test system: A549
RXF 393 = test system: RXF 393
M14 = test system: M14
OVCAR-8 = test system: OVCAR-8
UACC-257 = test system: UACC-257
PC-3 = test system: PC-3
IGROV-1 = test system: IGROV-1
MOLT-4 = test system: MOLT-4
SR = test system: SR
CAKI-1 = test system: CAKI-1
HCT-15 = test system: HCT-15
HL-60 = test system: HL-60
HT-29 = test system: HT-29
MDA-N = test system: MDA-N
CCRF-CEM = test system: CCRF-CEM
Malme-3M = test system: Malme-3M
ACHN = test system: ACHN
NCI-H460 = test system: NCI-H460
SNB-19 = test system: SNB-19
UO-31 = test system: UO-31

SMILES: CCc1nc(N)nc(N)c1-c1ccc(Cl)c(N=[N+]=[N-])c1
- GI50 (HCC 2998): 9.62 µM (inactive)
- GI50 (SK-MEL-5): 2.61 µM (inactive)
- GI50 (EKVX): 2.75 µM (inactive)
- GI50 (NCI/ADR-RES): 5.5 µM (inactive)
- GI50 (DU-145): 11.2 µM (inactive)
- GI50 (786-0): 3.44 µM (inactive)
- GI50 (LOX IMVI): 2.21 µM (inactive)
- GI50 (NCI-H23): 4.03 µM (inactive)
- GI50 (SF-295): 2.09 µM (inactive)
- GI50 (U-251): 4.69 µM (inactive)
- GI50 (NCI-H226): 22.7 µM (inactive)
- GI50 (SK-MEL-2): 14.6 µM (inactive)
- GI50 (SN12C): 12.6 µM (inactive)
- GI50 (NCI-H522): 9.51 µM (inactive)
- GI50 (HOP-92): 20.5 µM (inactive)
- GI50 (OVCAR-3): 15.6 µM (inactive)
- GI50 (SF-268): 9.35 µM (inactive)
- GI50 (MDA-MB-231): 15.6 µM (inactive)
- GI50 (OVCAR-4): 19.2 µM (inactive)
- GI50 (KM12): 7.36 µM (inactive)
- GI50 (Hs-578T): 16.7 µM (inactive)
- GI50 (HCT-116): 0.6 µM (active)
- GI50 (MDA-MB-435): 2.84 µM (inactive)
- GI50 (SNB-75): 22.1 µM (inactive)
- GI50 (COLO 205): 7.74 µM (inactive)
- GI50 (MCF7): 5.48 µM (inactive)
- GI50 (A498): 8.39 µM (inactive)
- GI50 (K562): 0.37 µM (active)
- GI50 (SW-620): 1.6 µM (inactive)
- GI50 (SK-OV-3): 31 µM (inactive)
- GI50 (RPMI-8226): 8.87 µM (inactive)
- GI50 (SK-MEL-28): 13.5 µM (inactive)
- GI50 (SF-539): 4.05 µM (inactive)
- GI50 (OVCAR-5): 12.1 µM (inactive)
- GI50 (HOP-62): 16.7 µM (inactive)
- GI50 (T47D): 28.5 µM (inactive)

SMILES: CCN1CCN=C2c3cc(OC)ccc3Nc3c([N+](=O)[O-])ccc1c32
- GI50 (HCC 2998): 0.78 µM (active)
- GI50 (SK-MEL-5): 1.17 µM (inactive)
- GI50 (EKVX): 2.12 µM (inactive)
- GI50 (UACC-62): 1.39 µM (inactive)
- GI50 (DU-145): 2.72 µM (inactive)
- GI50 (786-0): 0.512 µM (active)
- GI50 (TK-10): 3.75 µM (inactive)
- GI50 (A549): 0.667 µM (active)
- GI50 (RXF 393): 0.556 µM (active)
- GI50 (M14): 1 µM (active)
- GI50 (OVCAR-8): 0.621 µM (active)
- GI50 (UACC-257): 1.83 µM (inactive)
- GI50 (NCI-H23): 1.35 µM (inactive)
- GI50 (PC-3): 1 µM (active)
- GI50 (SF-295): 1.61 µM (inactive)
- GI50 (IGROV-1): 1.67 µM (inactive)
- GI50 (SN12C): 0.796 µM (active)
- GI50 (MOLT-4): 0.279 µM (active)
- GI50 (HOP-92): 0.622 µM (active)
- GI50 (SF-268): 0.443 µM (active)
- GI50 (MDA-MB-231): 0.736 µM (active)
- GI50 (OVCAR-4): 1.29 µM (inactive)
- GI50 (KM12): 0.713 µM (active)
- GI50 (SR): 0.244 µM (active)
- GI50 (MDA-MB-435): 1.01 µM (active)
- GI50 (CAKI-1): 0.485 µM (active)
- GI50 (HCT-15): 1.21 µM
- GI50 (SNB-75): 1.68 µM (inactive)
- GI50 (COLO 205): 0.668 µM (active)
- GI50 (MCF7): 1.28 µM (inactive)
- GI50 (HL-60): 0.516 µM (active)
- GI50 (K562): 0.473 µM (active)
- GI50 (HT-29): 0.705 µM (active)
- GI50 (SW-620): 0.472 µM (active)
- GI50 (SK-OV-3): 2.43 µM (inactive)
- GI50 (RPMI-8226): 0.552 µM (active)
- GI50 (SK-MEL-28): 2.32 µM (inactive)
- GI50 (MDA-N): 0.839 µM (active)
- GI50 (CCRF-CEM): 0.571 µM (active)
- GI50 (Malme-3M): 0.841 µM (active)
- GI50 (HOP-62): 0.634 µM (active)
- GI50 (T47D): 3.32 µM (inactive)

SMILES: CCOC(=O)C(NC(=O)CC)(Nc1ccccc1OC)C(F)(F)F (stereo not given)
- GI50 (HCC 2998): > 100 µM (inactive)
- GI50 (SK-MEL-5): > 100 µM (inactive)
- GI50 (EKVX): > 100 µM (inactive)
- GI50 (UACC-62): > 100 µM (inactive)
- GI50 (NCI/ADR-RES): > 100 µM (inactive)
- GI50 (DU-145): > 100 µM (inactive)
- GI50 (TK-10): > 100 µM (inactive)
- GI50 (A549): > 100 µM (inactive)
- GI50 (RXF 393): > 100 µM (inactive)
- GI50 (M14): > 100 µM (inactive)
- GI50 (OVCAR-8): > 100 µM (inactive)
- GI50 (UACC-257): > 100 µM (inactive)
- GI50 (LOX IMVI): > 100 µM (inactive)
- GI50 (NCI-H23): > 100 µM (inactive)
- GI50 (PC-3): > 100 µM (inactive)
- GI50 (SF-295): > 100 µM (inactive)
- GI50 (U-251): > 100 µM (inactive)
- GI50 (IGROV-1): > 100 µM (inactive)
- GI50 (SK-MEL-2): > 100 µM (inactive)
- GI50 (SN12C): > 100 µM (inactive)
- GI50 (NCI-H522): > 100 µM (inactive)
- GI50 (MOLT-4): > 100 µM (inactive)
- GI50 (ACHN): > 100 µM (inactive)
- GI50 (HOP-92): > 100 µM (inactive)
- GI50 (OVCAR-3): > 100 µM (inactive)
- GI50 (SF-268): > 100 µM (inactive)
- GI50 (MDA-MB-231): > 100 µM (inactive)
- GI50 (OVCAR-4): > 100 µM (inactive)
- GI50 (KM12): > 100 µM (inactive)
- GI50 (Hs-578T): > 100 µM (inactive)
- GI50 (NCI-H460): > 100 µM (inactive)
- GI50 (HCT-116): > 100 µM (inactive)
- GI50 (SR): > 100 µM (inactive)
- GI50 (MDA-MB-435): > 100 µM (inactive)
- GI50 (CAKI-1): 13 µM (inactive)
- GI50 (HCT-15): > 100 µM
- GI50 (SNB-75): > 100 µM (inactive)
- GI50 (SNB-19): > 100 µM (inactive)
- GI50 (COLO 205): > 100 µM (inactive)
- GI50 (MCF7): > 100 µM (inactive)
- GI50 (HL-60): > 100 µM (inactive)
- GI50 (K562): > 100 µM (inactive)
- GI50 (HT-29): > 100 µM (inactive)
- GI50 (SW-620): > 100 µM (inactive)
- GI50 (SK-OV-3): > 100 µM (inactive)
- GI50 (RPMI-8226): > 100 µM (inactive)
- GI50 (SK-MEL-28): > 100 µM (inactive)
- GI50 (SF-539): > 100 µM (inactive)
- GI50 (MDA-N): > 100 µM (inactive)
- GI50 (UO-31): > 100 µM (inactive)
- GI50 (CCRF-CEM): > 100 µM (inactive)
- GI50 (OVCAR-5): > 100 µM (inactive)
- GI50 (T47D): > 100 µM (inactive)

SMILES: CN(Cc1cc(Cl)c(Cl)cc1NC(=O)CN)[C@H]1CCCC[C@@H]1N1CCCC1
- GI50 (HCC 2998): 17.2 µM (inactive)
- GI50 (SK-MEL-5): 17.7 µM (inactive)
- GI50 (EKVX): 34.9 µM (inactive)
- GI50 (UACC-62): 17.1 µM (inactive)
- GI50 (NCI/ADR-RES): > 100 µM (inactive)
- GI50 (786-0): 17.1 µM (inactive)
- GI50 (TK-10): 28.1 µM (inactive)
- GI50 (A549): 38.3 µM (inactive)
- GI50 (RXF 393): > 100 µM (inactive)
- GI50 (M14): 17.1 µM (inactive)
- GI50 (OVCAR-8): 54.5 µM (inactive)
- GI50 (UACC-257): 16.9 µM (inactive)
- GI50 (LOX IMVI): 15.4 µM (inactive)
- GI50 (NCI-H23): > 100 µM (inactive)
- GI50 (PC-3): 50.7 µM (inactive)
- GI50 (SF-295): 18.6 µM (inactive)
- GI50 (U-251): 5.2 µM (inactive)
- GI50 (IGROV-1): 66.2 µM (inactive)
- GI50 (NCI-H226): 66.4 µM (inactive)
- GI50 (SK-MEL-2): 16.2 µM (inactive)
- GI50 (SN12C): 69.3 µM (inactive)
- GI50 (NCI-H522): 18.4 µM (inactive)
- GI50 (MOLT-4): 28.8 µM (inactive)
- GI50 (ACHN): > 100 µM (inactive)
- GI50 (HOP-92): > 100 µM (inactive)
- GI50 (OVCAR-3): 74 µM (inactive)
- GI50 (SF-268): 68.2 µM (inactive)
- GI50 (MDA-MB-231): 38.5 µM (inactive)
- GI50 (OVCAR-4): > 100 µM (inactive)
- GI50 (KM12): 44.4 µM (inactive)
- GI50 (Hs-578T): 24.9 µM (inactive)
- GI50 (NCI-H460): 21.8 µM (inactive)
- GI50 (HCT-116): 20.8 µM (inactive)
- GI50 (SR): 21.5 µM (inactive)
- GI50 (MDA-MB-435): 15.6 µM (inactive)
- GI50 (CAKI-1): 92.7 µM (inactive)
- GI50 (SNB-75): > 100 µM (inactive)
- GI50 (SNB-19): 45.2 µM (inactive)
- GI50 (COLO 205): 15.2 µM (inactive)
- GI50 (MCF7): 32.4 µM (inactive)
- GI50 (HL-60): 40.4 µM (inactive)
- GI50 (A498): 18.4 µM (inactive)
- GI50 (K562): 17.8 µM (inactive)
- GI50 (HT-29): 19 µM (inactive)
- GI50 (SW-620): 37.5 µM (inactive)
- GI50 (SK-OV-3): > 100 µM (inactive)
- GI50 (SK-MEL-28): 19.8 µM (inactive)
- GI50 (MDA-N): 17 µM (inactive)
- GI50 (UO-31): 20.7 µM (inactive)
- GI50 (CCRF-CEM): 30.3 µM (inactive)
- GI50 (Malme-3M): 18.3 µM (inactive)
- GI50 (OVCAR-5): 46.3 µM (inactive)
- GI50 (HOP-62): 92.7 µM (inactive)
- GI50 (T47D): 38.6 µM (inactive)
